Test results as given in patent US20120245137A1 (Zalicus Pharmaceuticals Ltd., priority 2009, published 2012).

What was measured:
[1] = target: human α1G T-type channels (Homo sapiens, UniProt O43497); assay: T-type calcium channel block, whole cell patch clamp, α1G; format: cell-based; conditions: HEK cells stably expressing human α1G; mainly non-inactivated protocol; values above 10,000 nM represented as 10000
In short: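 Whole-cell voltage clamp on stably transfected HEK 293 lines carrying human α1H or α1G. Two voltage protocols used: non-inactivated pre-pulse for resting block, inactivated for voltage-dependent block; test agents perfused locally in external solution (0.1-0.01% DMSO) following ~10 min rest.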

[2] = target: human α1H T-type channels (Homo sapiens, UniProt O95180); assay: T-type calcium channel block, whole cell patch clamp, α1H; format: cell-based; conditions: HEK cells stably expressing human α1H; mainly non-inactivated protocol; values above 10,000 nM represented as 10000
Procedure: T-type calcium channel blocking activity was assayed in human embryonic kidneycells, HEK 293 (Invitrogen), stably transfected with the T-type calcium channel subunits. Briefly, cells were cultured in Dulbecco's modified eagle medium (DMEM) supplemented with 10% fetal bovine serum, 200 U/ml penicillin, and 0.2 mg/mL streptomycin at 37° C. with 5% CO2. At 85% confluency, cells were split with 0.25% trypsin/1 mM EDTA and plated at 10% confluency on glass coverslips. At 12 hours, the medium was replaced, and the cells stably transfected using a standard calcium phosphate protocol and the appropriate calcium channel cDNA's. Fresh DMEM was supplied, and the cells transferred to 28° C./5% CO2.
Standard patch-clamp techniques were employed to identify blockers of T-type currents. Briefly, previously described HEK cell lines stably expressing human α1G, α1H, and α1I T-type channels were used for all the recordings (passage #: 4-20, 37° C., 5% CO2). Whole cell patch clamp experiments were performed using an Axopatch 200B amplifier (Axon Instruments, Burlingame, Calif.) linked to a personal computer equipped with pCLAMP software. Data were analyzed using Clampfit (Axon Instruments) and SigmaPlot 4.0 (Jandel Scientific). To obtain T-type currents, plastic dishes containing semi-confluent cells were positioned on the stage of a ZEISS AXIOVERT S100 microscope after replacing the culture medium with external solution (Table 2). Whole-cell patches were obtained using pipettes (borosilicate glass with filament, O.D.: 1.5 mm, I.D.: 0.86 mm, 10 cm length), fabricated on a SUTTER P-97 puller with resistance values of ˜5 MΩ (Table 3).
T-type currents were reliably obtained by using two voltage protocols: • “non-inactivating,” and • “inactivation.”
Test compounds were dissolved in external solution, 0.1-0.01% DMSO. After ˜10 minutes rest, they were applied by gravity close to the cell using a WPI microfil tubing. The “non-inactivated” pre-pulse was used to examine the resting block of a compound. The “inactivated” protocol was employed to study voltage-dependent block.

human α1H T-type channels, sequence (O95180 whole entry): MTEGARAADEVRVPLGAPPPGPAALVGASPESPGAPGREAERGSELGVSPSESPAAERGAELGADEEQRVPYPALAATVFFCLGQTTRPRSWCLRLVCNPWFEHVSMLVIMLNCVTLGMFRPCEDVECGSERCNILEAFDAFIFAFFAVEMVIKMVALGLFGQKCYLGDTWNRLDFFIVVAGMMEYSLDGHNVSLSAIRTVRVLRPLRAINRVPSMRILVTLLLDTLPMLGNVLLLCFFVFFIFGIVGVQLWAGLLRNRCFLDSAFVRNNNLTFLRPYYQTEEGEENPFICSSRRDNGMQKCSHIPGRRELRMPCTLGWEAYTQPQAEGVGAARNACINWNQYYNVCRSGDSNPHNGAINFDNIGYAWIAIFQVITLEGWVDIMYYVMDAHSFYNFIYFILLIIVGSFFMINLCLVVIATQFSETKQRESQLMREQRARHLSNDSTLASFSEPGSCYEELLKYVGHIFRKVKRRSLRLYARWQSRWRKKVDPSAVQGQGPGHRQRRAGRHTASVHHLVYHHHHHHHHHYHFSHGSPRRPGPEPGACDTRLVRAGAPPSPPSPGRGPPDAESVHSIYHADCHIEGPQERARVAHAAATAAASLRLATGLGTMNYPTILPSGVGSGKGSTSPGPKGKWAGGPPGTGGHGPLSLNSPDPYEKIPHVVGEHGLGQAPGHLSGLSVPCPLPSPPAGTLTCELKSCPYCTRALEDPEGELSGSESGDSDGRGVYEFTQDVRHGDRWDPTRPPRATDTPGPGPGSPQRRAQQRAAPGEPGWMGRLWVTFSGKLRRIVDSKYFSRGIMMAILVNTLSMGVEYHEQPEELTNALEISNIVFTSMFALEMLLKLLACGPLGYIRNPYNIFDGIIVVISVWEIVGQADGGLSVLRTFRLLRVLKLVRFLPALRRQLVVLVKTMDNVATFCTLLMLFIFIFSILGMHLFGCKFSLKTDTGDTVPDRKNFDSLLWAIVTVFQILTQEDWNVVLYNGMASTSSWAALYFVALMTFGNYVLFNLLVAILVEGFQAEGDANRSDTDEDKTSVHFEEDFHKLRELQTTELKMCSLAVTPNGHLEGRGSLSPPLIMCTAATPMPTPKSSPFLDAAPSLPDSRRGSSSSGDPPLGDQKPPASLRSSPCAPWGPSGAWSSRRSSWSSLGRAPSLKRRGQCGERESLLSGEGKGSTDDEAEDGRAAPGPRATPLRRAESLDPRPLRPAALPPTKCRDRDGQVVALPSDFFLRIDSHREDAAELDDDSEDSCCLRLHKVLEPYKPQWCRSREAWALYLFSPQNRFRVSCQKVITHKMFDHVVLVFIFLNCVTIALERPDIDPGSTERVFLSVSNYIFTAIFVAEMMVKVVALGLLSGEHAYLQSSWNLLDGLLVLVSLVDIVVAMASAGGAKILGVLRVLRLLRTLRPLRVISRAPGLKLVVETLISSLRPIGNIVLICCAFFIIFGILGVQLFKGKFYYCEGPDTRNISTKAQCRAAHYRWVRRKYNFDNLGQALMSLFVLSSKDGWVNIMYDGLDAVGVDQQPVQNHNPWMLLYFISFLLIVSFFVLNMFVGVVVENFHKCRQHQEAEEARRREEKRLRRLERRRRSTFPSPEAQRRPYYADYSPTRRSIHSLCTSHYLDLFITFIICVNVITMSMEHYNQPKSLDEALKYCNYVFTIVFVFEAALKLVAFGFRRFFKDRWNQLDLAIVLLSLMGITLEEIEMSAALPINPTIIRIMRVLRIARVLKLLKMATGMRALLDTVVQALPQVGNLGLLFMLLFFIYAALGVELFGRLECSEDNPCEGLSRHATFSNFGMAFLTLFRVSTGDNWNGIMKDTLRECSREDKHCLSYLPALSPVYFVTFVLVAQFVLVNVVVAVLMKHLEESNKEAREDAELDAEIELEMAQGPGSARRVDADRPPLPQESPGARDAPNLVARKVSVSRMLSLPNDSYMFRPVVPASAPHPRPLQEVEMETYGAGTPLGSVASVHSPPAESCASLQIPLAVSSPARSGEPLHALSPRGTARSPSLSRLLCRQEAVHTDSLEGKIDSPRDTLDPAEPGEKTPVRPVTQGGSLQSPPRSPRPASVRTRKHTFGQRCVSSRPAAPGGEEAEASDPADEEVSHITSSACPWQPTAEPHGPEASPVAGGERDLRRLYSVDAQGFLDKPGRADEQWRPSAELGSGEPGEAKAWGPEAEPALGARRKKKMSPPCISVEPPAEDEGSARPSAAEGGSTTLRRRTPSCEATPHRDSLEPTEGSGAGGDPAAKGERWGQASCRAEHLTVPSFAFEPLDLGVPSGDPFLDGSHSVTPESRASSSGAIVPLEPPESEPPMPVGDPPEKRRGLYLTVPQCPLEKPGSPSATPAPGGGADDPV
human α1G T-type channels, sequence (O43497 whole entry, the tested form may be a part): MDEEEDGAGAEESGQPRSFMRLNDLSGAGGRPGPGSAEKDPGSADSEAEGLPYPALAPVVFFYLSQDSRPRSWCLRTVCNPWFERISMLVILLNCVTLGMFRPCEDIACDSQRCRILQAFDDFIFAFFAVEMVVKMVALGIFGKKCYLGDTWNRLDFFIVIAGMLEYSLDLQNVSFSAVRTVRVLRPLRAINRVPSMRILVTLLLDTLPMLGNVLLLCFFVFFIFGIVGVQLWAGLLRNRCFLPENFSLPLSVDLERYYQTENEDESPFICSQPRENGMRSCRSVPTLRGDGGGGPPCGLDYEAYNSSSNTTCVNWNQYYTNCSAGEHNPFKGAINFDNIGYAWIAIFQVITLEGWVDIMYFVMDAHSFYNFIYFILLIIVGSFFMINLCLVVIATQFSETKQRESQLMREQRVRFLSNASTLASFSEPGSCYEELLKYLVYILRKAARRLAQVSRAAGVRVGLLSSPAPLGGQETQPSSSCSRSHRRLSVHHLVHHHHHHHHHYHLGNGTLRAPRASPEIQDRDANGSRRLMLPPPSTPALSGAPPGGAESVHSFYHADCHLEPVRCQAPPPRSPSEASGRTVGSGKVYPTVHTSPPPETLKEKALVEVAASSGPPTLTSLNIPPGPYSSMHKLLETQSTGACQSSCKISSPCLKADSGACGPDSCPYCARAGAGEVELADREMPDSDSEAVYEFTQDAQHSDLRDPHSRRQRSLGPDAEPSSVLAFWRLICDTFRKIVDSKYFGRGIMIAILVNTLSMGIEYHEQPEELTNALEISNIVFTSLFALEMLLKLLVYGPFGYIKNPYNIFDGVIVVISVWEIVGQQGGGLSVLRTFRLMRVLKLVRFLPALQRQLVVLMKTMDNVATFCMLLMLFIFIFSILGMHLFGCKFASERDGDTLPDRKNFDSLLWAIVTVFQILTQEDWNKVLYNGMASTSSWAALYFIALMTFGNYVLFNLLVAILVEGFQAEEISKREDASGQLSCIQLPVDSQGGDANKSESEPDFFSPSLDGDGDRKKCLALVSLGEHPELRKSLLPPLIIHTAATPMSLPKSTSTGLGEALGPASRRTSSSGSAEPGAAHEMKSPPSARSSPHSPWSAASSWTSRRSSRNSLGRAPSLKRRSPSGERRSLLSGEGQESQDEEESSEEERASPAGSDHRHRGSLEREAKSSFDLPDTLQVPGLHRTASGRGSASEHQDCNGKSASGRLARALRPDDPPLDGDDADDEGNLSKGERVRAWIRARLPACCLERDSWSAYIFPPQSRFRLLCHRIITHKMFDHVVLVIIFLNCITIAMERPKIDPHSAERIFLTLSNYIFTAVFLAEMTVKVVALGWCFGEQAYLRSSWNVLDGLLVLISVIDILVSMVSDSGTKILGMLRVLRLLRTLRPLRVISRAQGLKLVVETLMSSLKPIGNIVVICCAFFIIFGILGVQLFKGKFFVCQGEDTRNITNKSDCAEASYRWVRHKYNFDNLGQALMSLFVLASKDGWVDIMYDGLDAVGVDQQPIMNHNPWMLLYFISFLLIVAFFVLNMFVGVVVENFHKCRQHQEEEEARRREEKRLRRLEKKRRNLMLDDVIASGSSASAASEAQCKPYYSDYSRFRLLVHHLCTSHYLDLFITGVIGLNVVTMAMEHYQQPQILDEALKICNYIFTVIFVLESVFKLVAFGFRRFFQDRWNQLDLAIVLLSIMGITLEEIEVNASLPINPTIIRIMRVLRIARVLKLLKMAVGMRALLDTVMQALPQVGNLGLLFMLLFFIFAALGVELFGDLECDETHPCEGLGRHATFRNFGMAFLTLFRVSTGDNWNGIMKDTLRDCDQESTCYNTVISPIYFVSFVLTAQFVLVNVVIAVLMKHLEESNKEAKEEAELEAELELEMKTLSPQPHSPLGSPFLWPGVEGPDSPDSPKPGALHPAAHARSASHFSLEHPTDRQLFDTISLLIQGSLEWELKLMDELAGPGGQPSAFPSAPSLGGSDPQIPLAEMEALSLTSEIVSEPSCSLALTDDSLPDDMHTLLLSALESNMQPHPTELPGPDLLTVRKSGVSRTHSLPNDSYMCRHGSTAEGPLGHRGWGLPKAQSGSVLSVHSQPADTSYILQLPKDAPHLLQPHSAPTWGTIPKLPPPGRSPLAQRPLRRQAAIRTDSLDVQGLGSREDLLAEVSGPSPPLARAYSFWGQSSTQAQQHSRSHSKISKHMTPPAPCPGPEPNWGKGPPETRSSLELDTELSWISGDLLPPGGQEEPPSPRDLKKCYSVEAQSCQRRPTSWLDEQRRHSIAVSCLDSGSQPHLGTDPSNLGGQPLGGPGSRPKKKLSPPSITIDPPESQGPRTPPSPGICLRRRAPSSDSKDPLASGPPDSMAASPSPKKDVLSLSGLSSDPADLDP

Row | IC50 [1] [nM] | IC50 [2] [µM] | Structure (SMILES)
1 | > 10000 | 6.73 | Cc1cc(C(=O)N[C@H]2CC[C@H](CS(=O)(=O)c3cccc(C(F)(F)F)c3)CC2)c(C(F)(F)F)o1 [Compound 172, 5-methyl-2-(trifluoromethyl)-N-((1R,4R)-4-((3-(trifluoromethyl)phenylsulfonyl)methyl)cyclohexyl)furan-3-carboxamide]
2 | 570 | 9.81 | CN(CCc1ccc(F)cc1)C(=O)C(C)(C)S(=O)(=O)c1cccc(C(F)(F)F)c1 [Compound 452, N-(4-fluorophenethyl)-N,2-dimethyl-2-(3-(trifluoromethyl)phenylsulfonyl)propanamide]
3 | 690 | 3.93 | CN(CCc1ccc(Cl)c(Cl)c1)C(=O)C(C)(C)S(=O)(=O)c1cccc(C(F)(F)F)c1 [Compound 453, N-(3,4-dichlorophenethyl)-N,2-dimethyl-2-(3-(trifluoromethyl)phenylsulfonyl)propanamide]
4 | 560 | 1.2 | CC(C)(CNC(=O)c1nc2cc(C(F)(F)F)ccc2[nH]1)S(=O)(=O)c1cccc(C(F)(F)F)c1 [Compound 457, N-(2-methyl-2-(3-(trifluoromethyl)phenylsulfonyl)propyl)-5-(trifluoromethyl)-1H-benzo[d]imidazole-2-carboxamide]
5 | 820 | > 10 | CC1(NC(=O)CNCC(C)(C)S(=O)(=O)c2cccc(C(F)(F)F)c2)CCC1 [Compound 459, 2-(2-methyl-2-(3-(trifluoromethyl)phenylsulfonyl)propylamino)-N-(l-methylcyclobutyl)acetamide]
6 | 170 | 1.17 | Cn1nc(C(F)(F)F)cc1C(=O)NCCC(C)(C)S(=O)(=O)c1cccc(C(F)(F)F)c1 [Compound 467, 1-methyl-N-(3-methyl-3-(3-(trifluoromethyl)phenylsulfonyl)butyl)-3-(trifluoromethyl)-1H-pyrazole-5-carboxamide]
7 | 350 | 4.86 | CC(C)(CCNC(=O)c1ccc(F)cc1)S(=O)(=O)c1cccc(C(F)(F)F)c1 [Compound 468, 4-fluoro-N-(3-methyl-3-(3-(trifluoromethyl)phenylsulfonyl)butyl) benzamide]
8 | 430 | 5.04 | CC(C)(CCNC(=O)c1ccc(C(F)(F)F)cc1S(C)(=O)=O)S(=O)(=O)c1cccc(C(F)(F)F)c1 [Compound 469, N-(3-methyl-3-(3-(trifluoromethyl)phenylsulfonyl)butyl)-2-(methylsulfonyl)-4-(trifluoromethyl)benzamide]
9 | 620 | 3.47 | CC(C)(CCNCC(=O)NC1CCCCC1)S(=O)(=O)c1cccc(C(F)(F)F)c1 [Compound 472, N-cyclohexyl-2-(3-methyl-3-(3-(trifluoromethyl)phenylsulfonyl)butylamino) acetamide]

Further lines, the compound ahead of its results:

Row | Structure (SMILES) | IC50 [1] [nM] | IC50 [2] [µM]
10 | CS(=O)(=O)c1nc(C(F)(F)F)ccc1C(=O)N[C@H]1CC[C@@](F)(S(=O)(=O)c2cccc(OC(F)(F)F)c2)CC1 [Compound 258, N-((1S,4S)-4-fluoro-4-(3-(trifluoromethoxy)phenylsulfonyl)cyclohexyl)-2-(methylsulfonyl)-6-(trifluoromethyl)nicotinamide] | 7340 | > 10
11 | CC(C)(C(=O)Nc1nc2ccc(Cl)cc2s1)S(=O)(=O)c1cccc(C(F)(F)F)c1 [Compound 449, N-(6-chlorobenzo[d]thiazol-2-yl)-2-methyl-2-(3-(trifluoromethyl)phenylsulfonyl)propanamide] | 450 | 0.55
12 | CC(C)(C(=O)NCCc1ccc(Cl)c(Cl)c1)S(=O)(=O)c1cccc(C(F)(F)F)c1 [Compound 451, N-(3,4-dichlorophenethyl)-2-methyl-2-(3-(trifluoromethyl)phenylsulfonyl)propanamide] | 260 | 2.41
13 | CN(Cc1ccc(F)c(C(F)(F)F)c1)C(=O)C(C)(C)S(=O)(=O)c1cccc(C(F)(F)F)c1 [Compound 454, N-(4-fluoro-3-(trifluoromethyl)benzyl)-N,2-dimethyl-2-(3-(trifluoromethyl)phenylsulfonyl)propanamide] | 610 | 3.48
14 | CC(C)(CNC(=O)c1cc(F)cc(Cl)c1)S(=O)(=O)c1cccc(C(F)(F)F)c1 [Compound 455, 3-chloro-5-fluoro-N-(2-methyl-2-(3-(trifluoromethyl)phenylsulfonyl)propyl)benzamide] | 400 | 2.5
15 | CC(C)(CNC(=O)c1ccc(F)c(C(F)(F)F)c1)S(=O)(=O)c1cccc(C(F)(F)F)c1 [Compound 456, 4-fluoro-N-(2-methyl-2-(3-(trifluoromethyl)phenylsulfonyl)propyl)-3-(trifluoromethyl)benzamide] | 710 | 0.91
16 | CC(C)(C(=O)Nc1nc2cc(C(F)(F)F)ccc2[nH]1)S(=O)(=O)c1cccc(C(F)(F)F)c1 [Compound 458, 2-methyl-N-(5-(trifluoromethyl)-1H-benzo[d]imidazol-2-yl)-2-(3-(trifluoromethyl)phenylsulfonyl)propanamide] | 900 | 1.92
17 | CC(C)(CCS(=O)(=O)c1cccc(C(F)(F)F)c1)S(=O)(=O)c1cccc(C(F)(F)F)c1 [Compound 460] | 100 | > 10
18 | CC(C)(CCS(=O)(=O)c1cc(Cl)cc(Cl)c1)S(=O)(=O)c1cccc(C(F)(F)F)c1 [Compound 461, 1,3-dichloro-5-(3-methyl-3-(3-(trifluoromethyl)phenylsulfonyl)butylsulfonyl)benzene] | 190 | > 10
19 | CC(C)(CCS(=O)(=O)c1ccc(Cl)cc1)S(=O)(=O)c1cccc(C(F)(F)F)c1 [Compound 462, 1-(4-(4-chlorophenylsulfonyl)-2-methylbutan-2-ylsulfonyl)-3-(trifluoromethyl)benzene] | 560 | > 10
20 | CC(C)(CCS(=O)(=O)c1cccc(OC(F)(F)F)c1)S(=O)(=O)c1cccc(C(F)(F)F)c1 [Compound 463, 1-(3-methyl-3-(3-(trifluoromethyl)phenylsulfonyl)butylsulfonyl)-3-(trifluoromethoxy)benzene] | 350 | > 10
21 | COc1cc(F)cc(C(=O)NCCC(C)(C)S(=O)(=O)c2cccc(C(F)(F)F)c2)c1 [Compound 464, 3-fluoro-5-methoxy-N-(3-methyl-3-(3-(trifluoromethyl)phenylsulfonyl)butyl) benzamide] | 60 | 2.14
22 | CC(C)(CCNC(=O)c1cc(F)cc(Cl)c1)S(=O)(=O)c1cccc(C(F)(F)F)c1 [Compound 465, 3-chloro-5-tluoro-N-(3-methyl-3-(3-(trifluoromethyl)phenylsulfonyl)butyl) benzamide] | 50 | 0.96
23 | CC(C)(CCNC(=O)c1ccc(C(F)(F)F)cn1)S(=O)(=O)c1cccc(C(F)(F)F)c1 [Compound 470, N-(3-methyl-3-(3-(trifluoromethyl)phenylsulfonyl)butyl)-5-(trifluoromethyl)picolinamide] | 130 | 5.84
24 | CC(C)(C)NC(=O)CNCCC(C)(C)S(=O)(=O)c1cccc(C(F)(F)F)c1 [Compound 471, N-tert-butyl-2-(3-methyl-3-(3-(trifluoromethyl)phenylsulfonyl)butylamino) acetamide] | 610 | > 10
